Reference: US8802597B2, “Herbicidal pyrimidines” (E I du Pont de Nemours and Company, priority 2003, dated 2014)
Where two headings read alike, the source gives them in different places.

Experiments:
Type in all cases: in vivo
[1] = tested on: eastern black nightshade (Solanum ptycanthum); experiment: Test C pre/postemergence; settings: Solanum, pre-emergence, Preemergence, read-out: Plant response rating, Nightshade
How it was run: (§1)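 Injury scored visually 12–14 days after application on 0–100 scale (100 = complete control), relative to controls. Compounds, formulated with surfactant in non-phytotoxic solvent, applied to soil at planting (pre) or to 1- to 4-leaf plants 2–18 cm tall (post) in greenhouse.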

[2] = tested on: yellow nutsedge (Cyperus esculentus); experiment: Test C pre/postemergence; settings: Cyperus; for pest or weed control at 8 g/ha: 8 g ai/ha; for pest or weed control at 16 g/ha: 16 g ai/ha; for pest or weed control at 31 g/ha: 31 g ai/ha; for pest or weed control at 62 g/ha: 62 g ai/ha
How it was run: as §1

[3] = tested on: velvetleaf (Abutilon theophrasti); experiment: Test C pre/postemergence; settings: Abutilon theophrasti; for pest or weed control at 8 g/ha: 8 g ai/ha; for pest or weed control at 16 g/ha: 16 g ai/ha; for pest or weed control at 31 g/ha: 31 g ai/ha; for pest or weed control at 62 g/ha: 62 g ai/ha
How it was run: as §1

[4] = tested on: junglerice (Echinochloa colona); experiment: Test E flooded paddy water application; settings: Flood, 21 days, scale 0 to 100 (0 no effect, 100 complete control)
How it was run: (§2)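 Greenhouse pots of Tama silt loam with weeds and rice at 2.0–2.5-leaf stage, flooded to 3 cm; compounds applied directly into paddy water, depth maintained. Visual rating versus untreated controls after 21 days, 0 (no effect) to 100 (complete control); 29.5/26.7 °C, 16-h photoperiod.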

[5] = tested on: water seeded rice seedlings (Oryza sativa cv. ‘Japonica-M202’); experiment: Test E flooded paddy water application; settings: Flood, 21 days, scale 0 to 100 (0 no effect, 100 complete control)
How it was run: as §2

[6] = tested on: early watergrass (Echinochloa oryzoides); experiment: Test E flooded paddy water application; settings: Flood, 21 days, scale 0 to 100 (0 no effect, 100 complete control)
How it was run: as §2

[7] = tested on: transplanted rice seedlings (Oryza sativa cv. ‘Japonica-M202’); experiment: Test E flooded paddy water application; settings: Flood, 21 days, scale 0 to 100 (0 no effect, 100 complete control)
How it was run: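 Response scored visually on a 0–100 scale (100 = complete control) at 21 days against untreated pots. Treatment was into paddy water 3 cm deep over silt loam, with plants at the 2.0–2.5-leaf stage, grown under 16-h light at 29.5/26.7 °C day/night.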

[8] = tested on: smallflower umbrella sedge (Cyperus difformis); experiment: Test E flooded paddy water application; settings: Flood, 21 days, scale 0 to 100 (0 no effect, 100 complete control)
How it was run: as §2

[9] = tested on: ducksalad (Heteranthera limosa); experiment: Test E flooded paddy water application; settings: Flood, 21 days, scale 0 to 100 (0 no effect, 100 complete control)
How it was run: as §2

[10] = tested on: late watergrass (Echinochloa oryzicola); experiment: Test E flooded paddy water application; settings: Flood, 21 days, scale 0 to 100 (0 no effect, 100 complete control)
How it was run: as §2

[11] = tested on: bearded (brdd.) sprangletop (Leptochloa fusca ssp. fascicularis); experiment: Test E flooded paddy water application; settings: Flood, 21 days, scale 0 to 100 (0 no effect, 100 complete control)
How it was run: as §2

[12] = tested on: barnyardgrass (Echinochloa crus-galli); experiment: Test E flooded paddy water application; settings: Flood, 21 days, scale 0 to 100 (0 no effect, 100 complete control)
How it was run: as §2

[13] = post-emergence, Postemergence, read-out: Plant response rating (scale of 0 to 100), Nutsedge, Yellow
[14] = pre-emergence, Preemergence, scale 0 to 100, 0 no effect, 100 complete control, read-out: Plant response rating, Nutsedge, Yellow
[15] = post-emergence, Postemergence, read-out: Plant response rating (scale of 0 to 100), Velvetleaf
[16] = pre-emergence, Preemergence, scale 0 to 100, 0 no effect, 100 complete control, read-out: Plant response rating, Velvetleaf

Nc1nc(-c2ccc(Br)cc2)nc(C(=O)O)c1Cl [Compound 95, 6-amino-2-(4-bromophenyl)-5-chloro-4-pyrimidinecarboxylic acid]
pest or weed control at 8 g/ha ([1]; 8 g ai/ha, scale 0 to 100 (0 no effect, 100 complete control)): 0% | pest or weed control at 16 g/ha ([1]; 16 g ai/ha, scale 0 to 100, 0 no effect, 100 complete control): 0% | pest or weed control at 31 g/ha ([1]; 31 g ai/ha, scale 0 to 100, 0 no effect, 100 complete control): 60% | pest or weed control at 62 g/ha ([1]; 62 g ai/ha, scale 0 to 100, 0 no effect, 100 complete control): 75% | pest or weed control at 8 g/ha ([2]; post-emergence, Postemergence, scale 0 to 100, read-out: Plant response rating, Nutsedge, Yellow): 55% | pest or weed control at 16 g/ha [2, 13]: 60% | pest or weed control at 31 g/ha [2, 13]: 60% | pest or weed control at 62 g/ha [2, 13]: 75% | pest or weed control at 8 g/ha ([2]; pre-emergence, Preemergence, scale 0 to 100 (0 no effect, 100 complete control), read-out: Plant response rating, Nutsedge, Yellow): 0% | pest or weed control at 16 g/ha [2, 14]: 40% | pest or weed control at 31 g/ha [2, 14]: 60% | pest or weed control at 62 g/ha [2, 14]: 60% | pest or weed control at 8 g/ha ([3]; post-emergence, Postemergence, scale 0 to 100, read-out: Plant response rating, Velvetleaf): 95% | pest or weed control at 16 g/ha [3, 15]: 95% | pest or weed control at 31 g/ha [3, 15]: 100% | pest or weed control at 62 g/ha [3, 15]: 100% | pest or weed control at 8 g/ha ([3]; pre-emergence, Preemergence, scale 0 to 100 (0 no effect, 100 complete control), read-out: Plant response rating, Velvetleaf): 0% | pest or weed control at 16 g/ha [3, 16]: 0% | pest or weed control at 31 g/ha [3, 16]: 60% | pest or weed control at 62 g/ha [3, 16]: 90% | Junglerice plant response rating ([4]; 32 g ai/ha): 0 | Junglerice plant response rating ([4]; 64 g ai/ha): 0 | Junglerice plant response rating ([4]; 125 g ai/ha): 0 | Junglerice plant response rating ([4]; 250 g ai/ha): 0 | Plant response rating, Junglerice ([4]; 16 g ai/ha): 0 | Rice, Water Seeded plant response rating ([5]; 32 g ai/ha): 0 | Rice, Water Seeded plant response rating ([5]; 64 g ai/ha): 0 | Rice, Water Seeded plant response rating ([5]; 125 g ai/ha): 0 | Rice, Water Seeded plant response rating ([5]; 250 g ai/ha): 15 | Plant response rating, Rice, Water Seeded ([5]; 16 g ai/ha): 0 | Watergrass, Early plant response rating ([6]; 32 g ai/ha): 0 | Watergrass, Early plant response rating ([6]; 64 g ai/ha): 0 | Watergrass, Early plant response rating ([6]; 125 g ai/ha): 0 | Watergrass, Early plant response rating ([6]; 250 g ai/ha): 0 | Plant response rating, Watergrass, Early ([6]; 16 g ai/ha): 0 | Rice, Transplanted plant response rating ([7]; 32 g ai/ha): 0 | Rice, Transplanted plant response rating ([7]; 64 g ai/ha): 0 | Rice, Transplanted plant response rating ([7]; 125 g ai/ha): 0 | Rice, Transplanted plant response rating ([7]; 250 g ai/ha): 15 | Plant response rating, Rice, Transplanted ([7]; 16 g ai/ha): 0 | Sedge, Umbrella plant response rating ([8]; 32 g ai/ha): 95 | Sedge, Umbrella plant response rating ([8]; 64 g ai/ha): 95 | Sedge, Umbrella plant response rating ([8]; 125 g ai/ha): 95 | Sedge, Umbrella plant response rating ([8]; 250 g ai/ha): 95 | Plant response rating, Sedge, Umbrella ([8]; 16 g ai/ha): 0 | Ducksalad plant response rating ([9]; 32 g ai/ha): 100 | Ducksalad plant response rating ([9]; 64 g ai/ha): 100 | Ducksalad plant response rating ([9]; 125 g ai/ha): 100 | Ducksalad plant response rating ([9]; 250 g ai/ha): 100 | Plant response rating, Ducksalad ([9]; 16 g ai/ha): 100 | Watergrass, Late plant response rating ([10]; 32 g ai/ha): 0 | Watergrass, Late plant response rating ([10]; 64 g ai/ha): 0 | Watergrass, Late plant response rating ([10]; 125 g ai/ha): 0 | Watergrass, Late plant response rating ([10]; 250 g ai/ha): 0 | Plant response rating, Watergrass, Late ([10]; 16 g ai/ha): 0 | Sprangletop, Brdd. plant response rating ([11]; 32 g ai/ha): 0 | Sprangletop, Brdd. plant response rating ([11]; 64 g ai/ha): 0 | Sprangletop, Brdd. plant response rating ([11]; 125 g ai/ha): 0 | Sprangletop, Brdd. plant response rating ([11]; 250 g ai/ha): 0 | Plant response rating, Sprangletop, Brdd. ([11]; 16 g ai/ha): 0 | Barnyardgrass plant response rating ([12]; 32 g ai/ha): 0 | Barnyardgrass plant response rating ([12]; 64 g ai/ha): 0 | Barnyardgrass plant response rating ([12]; 125 g ai/ha): 0 | Barnyardgrass plant response rating ([12]; 250 g ai/ha): 0 | Plant response rating, Barnyardgrass ([12]; 16 g ai/ha): 0
